Measurements from paper PMC12396409, “Screening and hit evaluation of a microbial metabolite library against the pathogenic Plasmodium falciparum and Toxoplasma gondii parasites” (International Journal for Parasitology: Drugs and Drug …, 2025).
Counter-ions that a name gives are not always drawn. Like-named read-outs stand apart in the source and are kept apart here.

Key:
[1] = tested on: P. falciparum 3D7 parasites; test: P. falciparum growth inhibition assay, 2-cycle (120 h treatment), delayed-death screen and dose-response; format: cell-based, Plasmodium falciparum; conditions: for activity at 2 µg/mL: Plasmodium falciparum, 3D7, 120 h, library screen at 2 μg/mL
[2] = tested on: T. gondii RH strain (RH-Tub-eYFP) tachyzoites; test: microbe, parasite or virus in culture; format: cell-based, Toxoplasma gondii; conditions: for percent parasite growth at 2 µg/mL: Toxoplasma gondii
[3] = tested on: P. falciparum 3D7 parasites; test: P. falciparum growth inhibition assay, 1-cycle (72 h treatment), SYBR DNA staining (library screen at 2 μg/mL and dose-response); format: cell-based, Plasmodium falciparum; conditions: for activity at 2 µg/mL: Plasmodium falciparum
[4] = P. falciparum 3D7, 120 h, parasite screen at 2 μg/mL, % growth, replicate 1
[5] = P. falciparum 3D7, 120 h, parasite screen at 2 μg/mL, % growth, replicate 2
[6] = T. gondii, 72 h, parasite screen at 2 μg/mL, % growth, replicate 1
[7] = T. gondii, 72 h, parasite screen at 2 μg/mL, % growth, replicate 2
[8] = P. falciparum 3D7, 72 h, parasite screen at 2 μg/mL, % growth, replicate 1
[9] = P. falciparum 3D7, 72 h, parasite screen at 2 μg/mL, % growth, replicate 2
[10] = P. falciparum, 120 h, screen at 2 μg/mL, replicate 1
[11] = P. falciparum, 120 h, screen at 2 μg/mL, replicate 2
[12] = T. gondii, 72 h, screen at 2 μg/mL, replicate 1
[13] = T. gondii, 72 h, screen at 2 μg/mL, replicate 2
[14] = P. falciparum, 72 h, screen at 2 μg/mL, replicate 1
[15] = P. falciparum, 72 h, screen at 2 μg/mL, replicate 2
[16] = T. gondii, 72 h, 2 μg/mL, values are growth (% of control)
[17] = active against the parasite at 2 μg/mL, no anti-tumour (NS-1) or cytotoxic (fibroblast) activity at 5 μg/mL

CC(C)=CCCC(C)C1CCC2(C)CC3C(C(=O)CC3(C)O)C(C=O)=CCC12 (stereo not drawn) [BIA-O1199]
Pf_120h_%Growth_Rep1 [1, 4]: 3.94%
Pf_120h_%Growth_Rep2 [1, 5]: 138.56%
Tg_72h_%Growth_Rep1 [2, 6]: 7.63%
Tg_72h_%Growth_Rep2 [2, 7]: 89.80%
Pf_72h_%Growth_Rep1 [3, 8]: -0.50%
Pf_72h_%Growth_Rep2 [3, 9]: -3.29%

CC(=O)O[C@H]1C[C@@]2(C)[C@@H](C[C@@H](O)[C@H]3[C@@]4(C)CC[C@@H](O)[C@@H](C)[C@@H]4CC[C@@]32C)/C1=C(\CCC=C(C)C)C(=O)O [Fusidate sodium]
activity at 2 µg/mL ([1]; 120 h, % growth, replicate 1, read-out: Pf_120h_%Growth_Rep1): 91.2%
activity at 2 µg/mL ([1]; 120 h, % growth, replicate 2, read-out: Pf_120h_%Growth_Rep2): 139%
percent parasite growth at 2 µg/mL ([2]; 72 h, library screen at 2 μg/mL, 72 h, % growth, replicate 1, read-out: Tg_72h_%Growth_Rep1): 111%
percent parasite growth at 2 µg/mL ([2]; 72 h, library screen at 2 μg/mL, 72 h, % growth, replicate 2, read-out: Tg_72h_%Growth_Rep2): 91.8%
activity at 2 µg/mL ([3]; 3D7, 72 h, library screen at 2 μg/mL, 72 h, % growth, replicate 1, read-out: Pf_72h_%Growth_Rep1): 87.5%
activity at 2 µg/mL ([3]; 3D7, 72 h, library screen at 2 μg/mL, 72 h, % growth, replicate 2, read-out: Pf_72h_%Growth_Rep2): 96%

Telomycin
Pf_120h_%Growth_Rep1 [1, 10]: 103.58%
Pf_120h_%Growth_Rep2 [1, 11]: 79.40%
Tg_72h_%Growth_Rep1 [2, 12]: 151.31%
Tg_72h_%Growth_Rep2 [2, 13]: 89.83%
Pf_72h_%Growth_Rep1 [3, 14]: 87.11%
Pf_72h_%Growth_Rep2 [3, 15]: 125.88%

NC(=O)c1cccc2nc3ccccc3nc12 [BIA-O1527]
Pf_120h_%Growth_Rep1 [1, 4]: 104.27%
Pf_120h_%Growth_Rep2 [1, 5]: 111.59%
Tg_72h_%Growth_Rep1 [2, 6]: 111.76%
Tg_72h_%Growth_Rep2 [2, 7]: 91.86%
Pf_72h_%Growth_Rep1 [3, 8]: 73.74%
Pf_72h_%Growth_Rep2 [3, 9]: 112.20%

CCCCCCCC(=O)N[C@H]1CCOC1=O [BIA-O1496]
Pf_120h_%Growth_Rep1 [1, 4]: 82.04%
Pf_120h_%Growth_Rep2 [1, 5]: 138.56%
Tg_72h_%Growth_Rep1 [2, 6]: 127.37%
Tg_72h_%Growth_Rep2 [2, 7]: 91.78%
Pf_72h_%Growth_Rep1 [3, 8]: 81.24%
Pf_72h_%Growth_Rep2 [3, 9]: 83.86%

COc1cc(-c2ccccn2)nc(/C=N/O)c1SC [Collismycin]
Pf_120h_%Growth_Rep1 [1, 10]: -4.02%
Pf_120h_%Growth_Rep2 [1, 11]: 3.02%
Tg_72h_%Growth_Rep1 [2, 12]: -1.50%
Tg_72h_%Growth_Rep2 [2, 13]: 0.69%
Pf_72h_%Growth_Rep1 [3, 14]: 3.71%
Pf_72h_%Growth_Rep2 [3, 15]: 8.55%

C=C[C@]1(C)C[C@@H](O)[C@]2(C)[C@H](C)CC[C@]3(CCC(=O)[C@H]32)[C@@H](C)[C@@H]1O [Mutilin]
Screen (T. gondii) ([2]; library screen at 2 μg/mL, RH strain, 72 h): I, I
Screen (P. falciparum) ([3]; library screen at 2 μg/mL, 3D7, 72 h, DD from the 120 h timepoint): I, I

CN(C)c1ccc(O)c2c1C[C@H]1C[C@H]3[C@H](N(C)C)C(O)=C(C(N)=O)C(=O)[C@@]3(O)C(O)=C1C2=O [Minocycline HCl, reference compound]
Mean ([2]; T. gondii, 72 h, 2 μg/mL, mean of both replicates, growth (% of control)): 21.66
Replicate 1 [2, 16]: 5.81
Replicate 2 [2, 16]: 37.51

CC(=O)O[C@@H]1[C@@H]2O[C@H]2[C@@](C)(O)C(=O)[C@@H](C)C/C=C/[C@H]2[C@H](O)C(C)=C(C)[C@H]3[C@H](Cc4ccccc4)NC(=O)[C@@]123 [19,20-epoxycytochalasin C]
selectivity for T. gondii in the screens [2, 17]: active selectively against P. falciparum and T. gondii
selectivity for P. falciparum in the screens [3, 17]: active selectively against P. falciparum and T. gondii

CCC[C@@H]1C[C@@H](C(=O)N[C@@H]([C@H]2O[C@H](SC)[C@H](O)[C@@H](O)[C@H]2O)[C@H](C)Cl)N(C)C1 [Clindamycin hydrochloride, reference compound]
percent parasite growth at 2 µg/mL ([2]; 72 h, read-out: Tg_72h_%Growth_Rep1): 21.7%
percent parasite growth at 2 µg/mL ([2]; 72 h, read-out: Tg_72h_%Growth_Rep2): 28.6%
